Test [1] concerns acid α-glucosidase (GAA). Put plainly: Ex vivo GAA enhancement assay in Pompe patient-derived lymphoblast cell lines treated with DNJ (4-MU-alpha-Glc lysate activity). In kind it is cell-based, human. Particulars: five days. How it is done: Lymphoblast cell lines were derived from 26 patients and treated with DNJ (0, 30, 100 and 300 μM) for five days. Lymphoblastoid cell lines (LCLs) are leukocyte cultures (primarily B cells) that have been transformed with the Epstein-Barr Virus (EBV) to produce proliferative suspension cultures. Leukocyte cultures were prepared as described in Example 2, and transformed with the EBV to establish the lymphoblast cells. Because well established LCLs can be very fast-growing (even those with genetic and metabolic disorders), their density must be carefully controlled to prevent overcrowding over an extended period. The following protocol details cell seeding density, treatment with a test compound (i.e. DNJ) treatment compound washout, lysing, and assaying of LCLs for the measurement of acid α-glucoside (GAA) with the test compound.
• 1. All cell culture work was performed in a BLII Bio-safety cabinet using sterile techniques. LCL culture was expanded to a T75 by transferring 7e^6-1e^7 cells total to a T75 and add 40 ml 37° C. complete growth media. • 2. Optimal LCL cultures were selected in T75 flasks based on cell density and viability. A cell count was performed on these cultures. Usually a cell density of 1e^6 cells/ml maintains LCLs at the highest viability (90-98% viable). Cells densities higher than 1e^6 cells/ml drastically reduce the overall viability in the culture. • 3. A sterile 50 ml conical centrifuge tube was used to prepare a cell suspension in the appropriate amount of complete growth media to obtain a final cell density of approximately 2.0×10^5 cells/ml at a volume of at least 20 ml. (For example, if the original culture contains 1e^6 cells/ml, 16 ml media should be added to 4 ml of the cell suspension in the staging tube to create a density of 2e^5 cells/ml in a volume of 20 ml.). Cell suspensions were dispensed into four labeled T25 flasks at 5 ml each total volume. This process is repeated for each LCL to be processed. All flasks were placed in a humidified 5% CO2 37° C. incubator overnight. The original T75 cultures can be expanded and returned to the same incubator, if necessary. 5. Treatment with Test Compound • 1. Treatment of the cells with the DNJ test compound was performed 24 hours after the cells were seeded into T25 flasks. • 2. 5 ml of each treatment concentration is required for each cell line. Cell lines were treated with test compound over a concentration range of 0, x, 3x, and 10x test compound. • 3. A 2x stock of test compound solution was prepared in sterile 15 ml or 50 ml centrifuge tubes for each condition and 5 ml solution was added to 5 ml pre-incubated culture. Stock concentrations of 0, 60, 200, and 600 μM DNJ were made; when added to the flasks, the final concentrations were 0, 30, 100, and 300 μM DNJ. • 4. Each set of flasks were marked with the appropriate treatment concentrations, and 5 ml from the corresponding stock suspension were added to each flask. All flasks were returned to the incubator for 5 days.
• 1. After five days (120 hours) of treatment, 100% of the media was exchanged in the cell suspension with compound-free complete media in the following manner; • 2. The contents of each T25 was transferred to a sterile 15 ml conical centrifuge tube that had been pre-numbered to maintain order of concentration range. • 3. After each set was transferred, each T25 was washed with 5 ml blank RPMI 1640 (no phenol red). • 4. The tubes were centrifuged at 21° C. for 10 min at 600 g. During the spin, the blank RPMI was removed from the flasks by aspiration, maintaining sterility. • 5. Following the centrifugation, the supernatant was removed from the tubes by aspiration and the pellets were resuspended in 10 ml complete media. The cell suspensions were transferred back to their respective flasksAll flasks were returned to the 5% CO2 37° C. incubator overnight.

Test [2] concerns GAA. Put plainly: GAA levels after longer treatment of cynomolgus monkeys. In kind it is in vivo. Conditions: treatment 4-13 weeks.
Test [3] has as its target T1, GAA (Mus musculus, UniProt P70699).
T1 construct: treatment of wild type mice and cynomolgus monkeys for longer periods of time; from tissue; host or cells: wild type mice
As to the kind of experiment: GAA levels after longer treatment of wild type mice. Particulars: treatment 4-13 weeks. In kind it is in vivo.

[4] abbreviates: 24/26 patient lymphoblast cell lines, DNJ 30-300 μM.
The mark [5] stands for this setting: patient cell lines with at least one missense mutation.
Where [6] appears, read: patient cell lines with one copy of IVS1 13T>G and one copy of a non-missense null mutation.

T1 sequence (P70699 70-953): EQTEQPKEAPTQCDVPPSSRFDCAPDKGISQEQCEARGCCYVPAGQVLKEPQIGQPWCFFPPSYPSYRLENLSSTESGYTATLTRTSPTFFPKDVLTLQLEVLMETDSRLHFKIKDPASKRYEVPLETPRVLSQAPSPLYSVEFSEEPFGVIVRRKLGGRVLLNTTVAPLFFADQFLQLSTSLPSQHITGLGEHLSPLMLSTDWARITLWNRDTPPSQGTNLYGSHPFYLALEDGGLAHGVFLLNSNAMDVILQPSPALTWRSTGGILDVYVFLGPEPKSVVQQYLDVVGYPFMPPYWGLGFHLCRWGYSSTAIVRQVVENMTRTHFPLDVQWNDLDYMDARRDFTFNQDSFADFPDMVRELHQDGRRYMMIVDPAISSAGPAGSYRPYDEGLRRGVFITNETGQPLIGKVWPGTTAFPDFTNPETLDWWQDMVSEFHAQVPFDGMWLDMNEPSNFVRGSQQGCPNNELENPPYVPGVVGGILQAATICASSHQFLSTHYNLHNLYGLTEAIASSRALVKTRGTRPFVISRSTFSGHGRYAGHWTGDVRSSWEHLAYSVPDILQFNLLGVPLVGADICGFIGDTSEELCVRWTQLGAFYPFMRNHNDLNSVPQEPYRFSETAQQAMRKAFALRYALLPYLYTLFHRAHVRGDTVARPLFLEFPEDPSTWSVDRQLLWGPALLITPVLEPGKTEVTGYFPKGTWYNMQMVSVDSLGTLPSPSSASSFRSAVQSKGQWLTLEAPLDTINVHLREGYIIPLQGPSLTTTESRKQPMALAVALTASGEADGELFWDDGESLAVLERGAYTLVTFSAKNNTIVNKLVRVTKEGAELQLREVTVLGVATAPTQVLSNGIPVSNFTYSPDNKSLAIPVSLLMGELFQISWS

Turning to `OC[C@H]1NCC(O)[C@@H](O)C1O` (stereo partly drawn) [DNJ, 1-deoxynojirimycin], the “increase in GAA levels, mean” value in test [1] (setting [4]) amounted to 93%; in test [1] (setting [6]), 22%. In addition, the “increase in GAA levels, range” value in test [1] (setting [4]) is on record as 7-620%; in test [1] (setting [6]), 7-51%. In test [1] (setting [5]), the “dose-dependent increase in GAA levels, mean” value was found to be 219%. For the same compound, the “dose-dependent increase in GAA levels, range” value in test [1] (setting [5]) is reported as 7-620%. Also, the “patient cell lines with dose-dependent increase in GAA levels” value in test [1] (patient-derived lymphoblasts, DNJ 0, 30, 100 and 300 μM) was 24/26. For the same compound, the “increase in GAA levels” value in test [2] and in test [3] was not below 2 fold in each case.

These data come from patent US20110136151A1, “ASSAYS FOR DIAGNOSING AND EVALUATING TREATMENT OPTIONS FOR POMPE DISEASE” (AMICUS THERAPEUTICS, INC., priority 2008, published 2011).
